In brackets after ≈: the same amount, converted by molar mass.
Assays:
Format in all cases: functional
[1] = system: NCI-H23; assay: Growth inhibitory activity against human NCI-H23 lung tumor cell line
[2] = species: Rattus norvegicus; assay: Growth inhibitory activity against H-ras transformed rat 2 tumor cell line; conditions: Rat2
[3] = system: SW-620; assay: Growth inhibitory activity against human SW620 colon tumor cell line
[4] = system: HCT-116; assay: Growth inhibitory activity against human HCT116 colon tumor cell line
[5] = system: A549; assay: Inhibitory activity against human A549 lung tumor cell proliferation
[6] = system: MDA-MB-231; assay: Growth inhibitory activity against human MDA-MB-231 breast tumor cell line

Row | SMILES | GI50 [1] | GI50 [2] | GI50 [3] | GI50 [4] | GI50 [5] | GI50 [6]
1 | CC(C)c1cc2c(cc1O)[C@@]1(CO)CCCC(C)(C)[C@@H]1CC2 [PISIFEROL] | 2.8 µg/mL (≈ 9.26 µM) | 2.3 µg/mL (≈ 7.6 µM) | 8.22 µg/mL (≈ 27.2 µM) | 4.34 µg/mL (≈ 14.3 µM) | 2.9 µg/mL (≈ 9.59 µM) | 8.34 µg/mL (≈ 27.6 µM)
2 | CC(C)c1cc2c(cc1O)[C@@]1(C)CCCC(C)(C)[C@@H]1CC2=O [SUGIOL] | < 50 µg/mL |  | < 50 µg/mL | < 50 µg/mL | < 50 µg/mL | < 50 µg/mL
3 | CC(C)c1cc2c(cc1O)[C@@]1(C)CCCC(C)(C)[C@@H]1CC2 [FERRUGINOL] | < 50 µg/mL |  | < 50 µg/mL | < 50 µg/mL | < 50 µg/mL | < 50 µg/mL
4 | CC(C)c1cc2c(cc1O)[C@@]1(C)CCCC(C)(C)[C@@H]1C(O)C2=O (some centres not stated) | 2.21 µg/mL (≈ 6.98 µM) | 3.5 µg/mL (≈ 11.1 µM) | 3.98 µg/mL (≈ 12.6 µM) | 2.52 µg/mL (≈ 7.96 µM) | 1.42 µg/mL (≈ 4.49 µM) | 3.64 µg/mL (≈ 11.5 µM)
5 | CC(C)c1cc2c(cc1O)[C@@]1(C)CCC[C@@](C)(CO)[C@@H]1CC2 [18-HYDROXYFERRUGINOL] | < 50 µg/mL |  | < 50 µg/mL | < 50 µg/mL | < 50 µg/mL | < 50 µg/mL

From ChEMBL document CHEMBL1143524, “Anti-tumor abietane diterpenes from the cones of Sequoia sempervirens” (2005)
